What was measured:
[1] = target: ADCK3 (human) (UniProt Q8NI60)
[2] = target: BMP2K (human) (UniProt Q9NSY1)
[3] = target: CAMK1D (human) (UniProt Q8IU85)
[4] = target: CAMK2D (human) (UniProt Q13557)
[5] = target: CDK13 (human) (UniProt Q14004)
[6] = target: CDK14 (human) (UniProt O94921)
[7] = target: CDKL2 (human) (UniProt Q92772)
[8] = target: CSK (human) (UniProt P41240)
[9] = target: CSNK1G3 (human) (UniProt Q9Y6M4)
[10] = target: CSNK2A1 (human) (UniProt P68400)
[11] = target: DDR1 (human) (UniProt Q08345)
[12] = target: FES (human) (UniProt P07332)
[13] = target: FGR (human) (UniProt P09769)
[14] = target: IRAK3 (human) (UniProt Q9Y616)
IRAK3 (human), sequence (Q9Y616 whole entry, looked up): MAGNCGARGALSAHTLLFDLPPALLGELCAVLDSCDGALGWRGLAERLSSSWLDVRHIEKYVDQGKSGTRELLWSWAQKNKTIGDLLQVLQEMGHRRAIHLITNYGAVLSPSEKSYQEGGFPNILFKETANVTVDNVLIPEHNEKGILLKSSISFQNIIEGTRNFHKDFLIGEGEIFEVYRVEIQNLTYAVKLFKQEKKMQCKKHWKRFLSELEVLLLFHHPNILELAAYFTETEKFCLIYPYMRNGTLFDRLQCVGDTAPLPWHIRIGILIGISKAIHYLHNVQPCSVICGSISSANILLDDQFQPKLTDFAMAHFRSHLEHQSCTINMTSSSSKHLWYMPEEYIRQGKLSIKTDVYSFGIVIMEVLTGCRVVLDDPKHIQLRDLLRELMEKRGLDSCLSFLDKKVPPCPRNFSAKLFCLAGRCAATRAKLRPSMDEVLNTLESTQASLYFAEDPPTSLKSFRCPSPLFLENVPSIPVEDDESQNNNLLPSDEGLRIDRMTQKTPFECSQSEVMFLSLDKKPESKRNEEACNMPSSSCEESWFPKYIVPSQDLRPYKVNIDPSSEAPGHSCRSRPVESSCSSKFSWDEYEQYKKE

[15] = target: ITK (human) (UniProt Q08881)
[16] = target: JAK1 JH1 JH2 (human) (UniProt P23458)
JAK1 JH1 JH2 (human), sequence (P23458 whole entry, looked up): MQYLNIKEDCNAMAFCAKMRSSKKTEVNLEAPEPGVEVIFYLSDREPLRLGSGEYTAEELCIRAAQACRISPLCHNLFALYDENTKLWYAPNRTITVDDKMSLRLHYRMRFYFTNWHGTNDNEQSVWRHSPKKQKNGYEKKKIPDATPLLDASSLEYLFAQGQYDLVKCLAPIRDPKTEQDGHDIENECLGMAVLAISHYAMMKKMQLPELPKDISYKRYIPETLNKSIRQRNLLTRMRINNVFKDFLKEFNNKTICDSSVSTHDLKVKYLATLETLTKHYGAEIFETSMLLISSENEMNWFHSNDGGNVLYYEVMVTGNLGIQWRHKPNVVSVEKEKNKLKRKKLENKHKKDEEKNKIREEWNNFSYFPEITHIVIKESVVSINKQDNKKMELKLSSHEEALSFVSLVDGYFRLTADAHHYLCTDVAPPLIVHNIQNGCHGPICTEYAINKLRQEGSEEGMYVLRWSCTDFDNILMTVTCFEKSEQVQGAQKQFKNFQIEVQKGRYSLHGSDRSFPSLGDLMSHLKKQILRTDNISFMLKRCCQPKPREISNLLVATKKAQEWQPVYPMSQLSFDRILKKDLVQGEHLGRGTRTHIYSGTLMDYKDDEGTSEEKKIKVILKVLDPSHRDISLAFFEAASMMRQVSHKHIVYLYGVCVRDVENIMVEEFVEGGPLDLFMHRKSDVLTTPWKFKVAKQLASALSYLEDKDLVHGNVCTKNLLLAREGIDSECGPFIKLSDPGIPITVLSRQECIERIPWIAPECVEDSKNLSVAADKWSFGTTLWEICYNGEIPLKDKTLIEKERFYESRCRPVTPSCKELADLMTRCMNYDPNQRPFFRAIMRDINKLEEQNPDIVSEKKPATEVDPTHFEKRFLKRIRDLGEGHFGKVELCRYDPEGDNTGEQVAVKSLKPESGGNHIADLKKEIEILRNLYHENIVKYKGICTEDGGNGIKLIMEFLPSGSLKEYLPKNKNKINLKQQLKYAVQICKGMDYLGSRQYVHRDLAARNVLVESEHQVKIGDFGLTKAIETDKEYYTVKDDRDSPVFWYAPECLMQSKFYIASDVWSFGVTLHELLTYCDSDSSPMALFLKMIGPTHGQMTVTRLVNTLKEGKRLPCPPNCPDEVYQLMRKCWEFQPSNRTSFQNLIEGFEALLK

[17] = target: LIMK1 (human) (UniProt P53667)
[18] = target: MAP2K5 (human) (UniProt Q13163)
[19] = target: MAP3K1 (human) (UniProt Q13233)
[20] = target: MAP3K4 (human) (UniProt Q9Y6R4)
[21] = target: MAP3K5 (human) (UniProt Q99683)
[22] = target: MAP4K1 (human) (UniProt Q92918)
[23] = target: MAP4K2 (human) (UniProt Q12851)
MAP4K2 (human), sequence (Q12851 whole entry, looked up): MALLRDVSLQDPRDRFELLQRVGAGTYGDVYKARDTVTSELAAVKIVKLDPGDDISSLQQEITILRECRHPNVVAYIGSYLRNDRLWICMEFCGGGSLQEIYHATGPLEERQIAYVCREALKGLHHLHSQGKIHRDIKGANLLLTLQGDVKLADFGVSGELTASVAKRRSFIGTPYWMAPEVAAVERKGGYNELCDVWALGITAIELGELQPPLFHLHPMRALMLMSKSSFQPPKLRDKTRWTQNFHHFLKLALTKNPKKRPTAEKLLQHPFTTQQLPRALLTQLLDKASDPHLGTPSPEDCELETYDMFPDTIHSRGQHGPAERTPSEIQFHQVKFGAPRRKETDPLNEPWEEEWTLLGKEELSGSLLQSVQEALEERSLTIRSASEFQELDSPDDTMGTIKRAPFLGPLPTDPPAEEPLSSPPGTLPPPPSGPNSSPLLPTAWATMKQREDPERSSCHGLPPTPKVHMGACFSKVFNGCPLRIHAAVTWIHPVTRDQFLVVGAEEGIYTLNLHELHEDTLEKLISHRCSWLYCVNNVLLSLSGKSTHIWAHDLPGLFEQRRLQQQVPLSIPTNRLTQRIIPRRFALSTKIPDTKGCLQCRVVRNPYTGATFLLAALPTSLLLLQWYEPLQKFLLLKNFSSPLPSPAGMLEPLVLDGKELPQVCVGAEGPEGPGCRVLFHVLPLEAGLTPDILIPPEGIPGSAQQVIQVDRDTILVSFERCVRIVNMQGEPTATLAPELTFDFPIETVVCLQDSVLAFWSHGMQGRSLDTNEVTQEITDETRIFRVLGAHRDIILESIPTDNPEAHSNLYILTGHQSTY

[24] = target: MAP4K5 (human) (UniProt Q9Y4K4)
[25] = target: MAPK1 (human) (UniProt P28482)
[26] = target: MAPK14 (human) (UniProt Q16539)
[27] = target: MAST3 (human) (UniProt O60307)
[28] = target: PRKAA1 (human) (UniProt Q13131)
[29] = target: PRKACB (human) (UniProt P22694)
[30] = target: PRKCD (human) (UniProt Q05655)
[31] = target: PRKD2 (human) (UniProt Q9BZL6)
[32] = target: RPS6KA1 KD1 KD2 (human) (UniProt Q15418)
[33] = target: RPS6KA4 KD1 KD2 (human) (UniProt O75676)
[34] = target: RPS6KA5 KD1 KD2 (human) (UniProt O75582)
RPS6KA5 KD1 KD2 (human), sequence (O75582 whole entry, looked up): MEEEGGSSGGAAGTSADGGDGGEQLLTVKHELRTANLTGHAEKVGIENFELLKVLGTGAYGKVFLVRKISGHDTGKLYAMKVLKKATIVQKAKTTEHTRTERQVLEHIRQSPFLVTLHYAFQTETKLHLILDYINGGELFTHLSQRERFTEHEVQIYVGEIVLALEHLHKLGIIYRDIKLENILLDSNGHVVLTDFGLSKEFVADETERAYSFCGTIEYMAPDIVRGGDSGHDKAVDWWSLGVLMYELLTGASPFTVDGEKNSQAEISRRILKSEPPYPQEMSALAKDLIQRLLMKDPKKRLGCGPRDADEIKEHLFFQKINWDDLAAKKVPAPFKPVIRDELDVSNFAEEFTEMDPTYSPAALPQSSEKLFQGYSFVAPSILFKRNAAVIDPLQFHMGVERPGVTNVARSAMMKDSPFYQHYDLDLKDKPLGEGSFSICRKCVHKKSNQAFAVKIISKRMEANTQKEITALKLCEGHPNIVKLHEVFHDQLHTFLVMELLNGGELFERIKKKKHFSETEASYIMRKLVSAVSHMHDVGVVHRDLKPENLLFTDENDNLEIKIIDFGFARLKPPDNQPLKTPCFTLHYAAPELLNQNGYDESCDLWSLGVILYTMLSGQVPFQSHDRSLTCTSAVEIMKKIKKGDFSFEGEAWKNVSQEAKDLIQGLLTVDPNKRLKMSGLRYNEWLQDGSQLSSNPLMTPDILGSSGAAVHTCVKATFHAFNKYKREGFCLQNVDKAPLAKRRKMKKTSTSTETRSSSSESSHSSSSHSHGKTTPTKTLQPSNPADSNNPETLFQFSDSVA

[35] = target: STK4 (human) (UniProt Q13043)
[36] = target: STRADA (human) (UniProt Q7RTN6)
[37] = target: TAOK2 (human) (UniProt Q9UL54)
[38] = target: TESK1 (human) (UniProt Q15569)
[39] = target: TGFBR2 (human) (UniProt P37173)
[40] = target: TNK2 (human) (UniProt Q07912)
TNK2 (human), sequence (Q07912 whole entry, looked up): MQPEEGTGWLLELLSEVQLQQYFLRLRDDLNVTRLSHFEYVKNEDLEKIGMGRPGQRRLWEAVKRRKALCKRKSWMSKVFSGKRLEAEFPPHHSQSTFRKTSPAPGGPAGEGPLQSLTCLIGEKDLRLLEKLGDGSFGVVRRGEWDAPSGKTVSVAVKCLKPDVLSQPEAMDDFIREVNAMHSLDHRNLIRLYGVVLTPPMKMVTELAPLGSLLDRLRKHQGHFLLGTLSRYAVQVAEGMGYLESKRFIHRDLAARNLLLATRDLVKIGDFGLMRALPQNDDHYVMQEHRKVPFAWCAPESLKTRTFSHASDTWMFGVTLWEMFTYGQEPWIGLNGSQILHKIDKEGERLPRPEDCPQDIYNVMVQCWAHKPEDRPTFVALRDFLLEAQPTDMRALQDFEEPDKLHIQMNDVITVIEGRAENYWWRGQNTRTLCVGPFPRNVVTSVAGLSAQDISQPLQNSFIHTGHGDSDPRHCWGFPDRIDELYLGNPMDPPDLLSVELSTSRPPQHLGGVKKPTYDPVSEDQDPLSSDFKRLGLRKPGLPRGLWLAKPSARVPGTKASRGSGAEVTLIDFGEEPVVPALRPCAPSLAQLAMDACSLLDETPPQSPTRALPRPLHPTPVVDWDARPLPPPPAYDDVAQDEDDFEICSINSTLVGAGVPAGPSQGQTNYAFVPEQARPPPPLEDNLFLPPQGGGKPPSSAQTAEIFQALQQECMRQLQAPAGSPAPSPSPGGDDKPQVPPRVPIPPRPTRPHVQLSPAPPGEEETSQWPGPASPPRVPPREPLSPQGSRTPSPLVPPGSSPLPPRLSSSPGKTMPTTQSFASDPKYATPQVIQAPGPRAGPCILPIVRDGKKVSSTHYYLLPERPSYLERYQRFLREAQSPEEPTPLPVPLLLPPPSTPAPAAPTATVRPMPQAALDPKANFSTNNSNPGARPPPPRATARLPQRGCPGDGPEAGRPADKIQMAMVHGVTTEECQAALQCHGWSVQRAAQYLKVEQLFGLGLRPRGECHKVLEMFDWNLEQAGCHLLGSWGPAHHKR

[41] = target: TYK2 JH1 JH2 (human) (UniProt P29597)
[42] = target: ULK3 (human) (UniProt Q6PHR2)
[43] = target: YES1 (human) (UniProt P07947)
YES1 (human), sequence (P07947 whole entry, looked up): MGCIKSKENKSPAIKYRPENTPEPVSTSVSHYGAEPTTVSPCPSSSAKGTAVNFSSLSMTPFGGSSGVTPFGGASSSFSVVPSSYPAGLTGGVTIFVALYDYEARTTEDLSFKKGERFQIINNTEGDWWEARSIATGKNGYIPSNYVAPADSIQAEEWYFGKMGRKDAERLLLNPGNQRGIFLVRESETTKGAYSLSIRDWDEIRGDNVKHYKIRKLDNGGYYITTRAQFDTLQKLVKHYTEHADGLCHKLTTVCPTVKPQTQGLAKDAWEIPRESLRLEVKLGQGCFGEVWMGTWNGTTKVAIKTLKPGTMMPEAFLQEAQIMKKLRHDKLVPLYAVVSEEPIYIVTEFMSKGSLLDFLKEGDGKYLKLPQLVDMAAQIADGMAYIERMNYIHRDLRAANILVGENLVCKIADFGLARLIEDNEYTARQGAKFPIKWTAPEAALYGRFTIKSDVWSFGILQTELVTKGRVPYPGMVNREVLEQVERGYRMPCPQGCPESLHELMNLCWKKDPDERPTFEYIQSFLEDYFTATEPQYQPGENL

Compound CN1CC[C@H](c2c(O)cc(O)c3c(=O)cc(-c4ccccc4Cl)oc23)[C@H](O)C1 has an IC50 [1] greater than 10 µM, an IC50 [2] greater than 10 µM and an IC50 [3] greater than 10 µM. For the same compound, the IC50 [4] was 7.67 µM, the IC50 [5] was 4.4 µM and the IC50 [6] was 2.96 µM. For the same compound, the IC50 [7] was greater than 10 µM, the IC50 [8] was greater than 10 µM and the IC50 [9] was greater than 10 µM. It also gave an IC50 [10] of 9.42 µM, an IC50 [11] greater than 10 µM and an IC50 [12] greater than 10 µM. The IC50 [13] was greater than 10 µM, the IC50 [14] was greater than 10 µM and the IC50 [15] was greater than 10 µM. For the same compound, the IC50 [16] was greater than 10 µM, the IC50 [17] was greater than 10 µM and the IC50 [18] was 9.71 µM. For the same compound, the IC50 [19] was greater than 10 µM, the IC50 [20] was greater than 10 µM and the IC50 [21] was greater than 10 µM. It also gave an IC50 [22] greater than 10 µM, an IC50 [23] greater than 10 µM and an IC50 [24] greater than 10 µM. The IC50 [25] was greater than 10 µM, the IC50 [26] was greater than 10 µM and the IC50 [27] was greater than 10 µM. The IC50 [28] was greater than 10 µM, the IC50 [29] was greater than 10 µM and the IC50 [30] was 1.19 µM. It also gave an IC50 [31] of 1.26 µM, an IC50 [32] of 8.74 µM and an IC50 [33] of 6.42 µM. It also gave an IC50 [34] greater than 10 µM, an IC50 [35] greater than 10 µM and an IC50 [36] greater than 10 µM. For the same compound, the IC50 [37] was 8.47 µM, the IC50 [38] was greater than 10 µM and the IC50 [39] was greater than 10 µM. It also gave an IC50 [40] greater than 10 µM, an IC50 [41] of 2.48 µM and an IC50 [42] greater than 10 µM. For the same compound, the IC50 [43] was greater than 10 µM.

Reference: the kinase profiling compilation of Christmann-Franck et al. (2016)
